T1: DarB (Bacillus subtilis, UniProt O31698)
T1 sequence (O31698 1-147): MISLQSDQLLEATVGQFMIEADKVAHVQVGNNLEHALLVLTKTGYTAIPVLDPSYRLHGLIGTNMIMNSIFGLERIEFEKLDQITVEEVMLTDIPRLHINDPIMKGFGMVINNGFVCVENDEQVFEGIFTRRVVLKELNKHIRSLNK


Assays:
DarB = molecular target: T1, DarB; test: ITC and crystal structure; format: binding
crystal structure = molecular target: the molecule itself; test: crystal structure

| Molecule | Kd (DarB) [µM] | stoichiometry N (crystal structure) |
| --- | --- | --- |
| Nc1ncnc2c1ncn2[C@@H]1O[C@H](COP(=O)(O)O)[C@@H](O)[C@H]1O [AMP] | 91.1 |  |
| DarB (c-di-AMP receptor protein, CBS domain protein) of Bacillus subtilis, wild type (natural protein) MISLQSDQLLEATVGQFMIEADKVAHVQVGNNLEHALLVLTKTGYTAIPVLDPSYRLHGLIGTNMIMNSIFGLERIEFEKLDQITVEEVMLTDIPRLHINDPIMKGFGMVINNGFVCVENDEQVFEGIFTRRVVLKELNKHIRSLNK |  | 2 |

Source: PMC9293649 (The Journal of Biological Chemistry, 2022)
